A short description of series [1]: Chelator accumulation in lung tissue. It counts as in vivo, rodents. Conditions: SC 300 μmol/kg, 0.5 h post drug. An excerpt: Chelator Access to Lung Tissue. As inhalation is one of the principal routes of potential actinide contamination, in a preliminary study aimed at this proposal, the accumulation of two different DFT analogues in lung tissue, (S)-4′-(HO)-DADMDFT (9, FIG. 1) and (S)-3′,4′-(CH3O)-DADMDFT, 19, Table 2)] was investigated. Rodents were given the drugs SC at a dose of 300 μmol/kg. The latter chelator is far more lipophilic than the former. The more lipophilic chelator (19) achieved a concentration of 290±66 nmol/g wet weight 0.5 h post drug. The level of the less lipophilic ligand (9) was much lower, 80±9 nmol/g wet weight 0.5 h post drug. This is consistent with the idea that organ targeting can be achieved,[Bergeron, et al., Impact of the Lipophilicity of Desferrithiocin Analogues on Iron Clearance, Medicinal Inorganic Chemistry 2005; 366-383] corroborating previous studies and further contributing to the index of success of the invention.

For series [2] the following is noted: in vivo; cited from earlier work.
For series [3] the following is noted: rats, same dose; cited from earlier work.
For series [4] the following is noted: cited from earlier work; for iron-clearing activity, in words: C. apella model.
The nature of series [5]: Chelator-induced uranium excretion (urine + bile, 24 h) in bile duct-cannulated rat model. It counts as in vivo. To be noted: for % of Administered Dose Cleared: 300 μmol/kg IP Immediate. On the procedure:
Desferrithiocin Analogue Induced Excretion of Uranium. In order to compare results with previous chelator-induced iron excretion data, the uranium clearance studies were carried out in a bile duct-cannulated rat model. The animals were given uranyl acetate dihydrate SC at a dose of 5 mg/kg (the actual dose of uranium is 2.8 mg/kg). Bile and urine samples were collected for 24 hours after dosing. Kidneys were removed from selected animals and tissue uranium concentration measured. At least three animals were utilized in each experimental group. Data from two separate control studies (uranyl acetate/ no chelator) have now been combined for a total of 14 control animals. All uranium concentrations were measured using ICPMS. The data are reported as the total quantity of uranium excreted [urine +bile]; the mode of excretion [urine/bile] is also given. In addition the percentage of the administered dose of uranium cleared and chelator-induced uranium excretion vs the controls is also given. Four positive controls were evaluated: DTPA (13, Table 1) given as its trisodium calcium salt, DFO (14), N,N′-bis(2hydroxybenzyl)ethylenediamine-N,N′-diacetic acid, monosodium salt (NaHBED, 15) and the hydroxypyridone CP94 (16) shown to bind uranium [Pashalidis, et al., Effective complex formation in the interaction of 1,2-dimethyl-3-hydroxypyrid-4-one (Deferiprone or L1) with uranium(VI), Journal of Radioanalytical and Nuclear Chemistry 1999; 242:181-184.] The total metal cleared after 24 h in control rats was 10% of the administered dose. When DTPA, 13, was given IP or PO at 300 μmol/kg immediately after uranium, the excretion was 17% and 8% of the administered dose respectively (p>0.05). However, when the drug was given IP at a dose of 600 μmol/kg immediately post-metal, the uranium excretion was significant, 20% (p<0.005). This is consistent with previously published data using a similar animal model.[Domingo, et al., Comparative effects of the chelators sodium 4,5-dihydroxybenzene-1,3-disulfonate (Tiron) and diethylenetriaminepentaacetic acid (DTPA) on acute uranium nephrotoxicity in rats, Toxicology 1997; 118:49-59] DFO (14) and CP94 (16) given IP immediately post uranyl acetate were ineffective.
Desferrithiocin Analogue-Induced Excretion of Uranium. In order to compare results with previous chelator-induced iron excretion data, the uranium clearance studies were carried out in a bile duct-cannulated rat model. The animals were given uranyl acetate dihydrate SC at a dose of 5 mg/kg (the actual dose of uranium is 2.8 mg/kg). Bile and urine samples were collected for 24 hours after dosing. Kidneys were removed from selected animals and tissue uranium concentration measured. At least three animals were utilized in each experimental group. Data from two separate control studies (uranyl acetate/ no chelator) are combined for a total of 14 control animals. All uranium concentrations were measured using ICPMS. The data are reported as the total quantity of uranium excreted [urine +bile]; the mode of excretion [urine/bile] is also given. In addition the percentage of the administered dose of uranium cleared and chelator-induced uranium excretion vs the controls is also given. Four positive controls were evaluated: DTPA (1, Table 1) given as its trisodium calcium salt, DFO (2), N,N -bis(2-hydroxybenzyl)ethylenediamine-N,N-diacetic acid, monosodium salt (NaHBED, 3) and the hydroxypyridone CP94 (4) shown to bind uranium. The total metal cleared after 24 h in control rats was 10% of the administered dose. When DTPA, 1, was given IP or PO at 300 μmol/kg immediately after uranium, the excretion was 17% and 8% of the administered dose respectively (p>0.05). However, when the drug was given IP at a dose of 600 μmol/kg immediately post metal, the uranium excretion was significant, 20% (p<0.005). This is consistent with previously published data using a similar animal model.^2 DFO (2) and CP94 (4) given IP immediately post uranyl acetate were ineffective.

For series [6] the following is noted: in vivo; cited from earlier work. This is another data set of the same source.
The mark [7] stands for this setting: iron-overloaded C. apella primate.
The mark [8] stands for this setting: administered PO at a dose of 150 μmol/kg.

Where two headings read alike, the source gives them in different places.

Take `COc1ccc(C2=N[C@@H](C(=O)O)CS2)c(O)c1OC` [Compound 19, (S)-4,5-dihydro-2(3,4-dimethoxy-2-hydroxyphenyl)-4-thiazolecarboxylic acid]: the “concentration in lung tissue” value in series [1] was determined as 290±66 nmol/g wet weight.

Regarding `C[C@]1(C(=O)O)CSC(c2ccccc2O)=N1` [Compound 3, (S)-4,5-dihydro-2-(2-hydroxyphenyl)-4-methyl-4-thiazolecarboxylic acid], in series [2], the “toxicity, in words” value is listed as “Severe gastrointestinal (GI) toxicity”. For the same compound, the “outcome of planned 10-day dosing regimen” value in series [3] is “dead by day 5”. The ICE in series [4] (setting [7]) is listed as 13%.

Consider `COc1ccc(C2=N[C@@](C)(C(=O)O)CS2)c(O)c1` [Compound 12, (S)-4,5-dihydro2-(2-hydroxy-4-methoxyphenyl)4-methyl-4-thiazolecarboxylic acid], for which the “toxicity, in words” value in series [2] is “too toxic for clinical consideration”. Moreover, in series [5], the “% of Administered Dose Cleared” value is given as 20%. In addition, the “uranium excretion, in words” value in series [5] (IP 300 μmol/kg, given 0.5 h post metal) is given as “within error of control”. For the same compound, the “iron-clearing efficiency, in words” value in series [4] (in both rodents and primates) was “excellent iron-clearing efficiency”. Further, the “metabolite formed by metabolic O-demethylation” value in series [6] is “(S)-4′-(HO)-DADFT (10)”.

As to `O=C(O)[C@H]1CSC(c2ccccc2O)=N1` [Compound 4, (S)-4,5-dihydro-2-(2-hydroxyphenyl)-4-thiazolecarboxylic acid], the “toxicity, in words” value in series [2] is on record as “Severe gastrointestinal (GI) toxicity”. Moreover, the “outcome of planned 10-day dosing regimen” value in series [3] is on record as “dead by day 5”. The figures for the ICE in series [4] (setting [8]) and in series [4] (setting [7]) were 12.4% and 12%, respectively.

In the case of `C[C@]1(C(=O)O)CSC(c2ccc(O)cc2O)=N1` [Compound 10, (S)-2-(2,4-dihydroxyphenyl)-4,5-dihydro-4-methyl-4-thiazolecarboxylic acid], the “outcome of planned 10-day dosing regimen” value in series [3] is reported as “did not display any frank toxicity”. Besides, the “% of Administered Dose Cleared” value in series [5] came out at 19%. Besides, the “iron-clearing activity, in words” value in series [4] is “compatible with iron clearance”. Moreover, the ICE in series [4] (given orally to the primates at an iron binding equivalent dose) was 13.4±5.8%.

For `O=C(O)[C@H]1CSC(c2ccc(O)cc2O)=N1` [Compound 9, (S)-2(2,4-dihydroxyphenyl)-4,5-dihydro-4-thiazolecarboxylic acid], in series [3], the “outcome of planned 10-day dosing regimen” value is given as “did not display any frank toxicity”. The “concentration in lung tissue” value in series [1] amounted to 80±9 nmol/g wet weight. Further, the “iron-clearing activity, in words” value in series [4] is recorded as “compatible with iron clearance”. The ICE in series [4] (setting [8]) is given as 5.3%.
